Consider 24 compounds from US20080280855A1, “Process For the Production of Intermediates For the Preparation of Tricyclic Benzimidazoles” (NYCOMED GmbH, priority 2005, published 2008).

Structures can show the parent of a compound that is named as a salt.

One data set concerns pentagastrin-stimulated acid secretion of the perfused rat stomach. The data set can be described thus: Testing of the secretion-inhibiting action on the perfused rat stomach. The conditions noted are these: dose 1 μmol/kg i.d. (intraduodenal), anesthetized CD rat, female, continuous i.v. pentagastrin infusion.
For orientation: inhibition in vivo means how much of the control response was suppressed. Read a low inhibition in vivo as a response near the control. `Cc1nc2c3c(c(C(=O)N(C)C)cc2n1C)CC[C@@H](c1ccccc1)O3` [A, (8S)-2,3-Dimethyl-8-phenyl-3,6,7,8-tetrahydro-chromeno[7,8-d]imidazole-5-carboxylic Acid Dimethylamide] showed an inhibition in vivo at 1 µmol/kg of more than 60%.

Turning to `Cc1nc2c3c(c(C(=O)N(C)C)cc2[nH]1)CC[C@@H](c1ccccc1)O3` [C, (8S)-2-Methyl-8-phenyl-3,6,7,8-tetrahydro-chromeno[7,8-d]imidazole-5-carboxylic Acid Dimethylamide], the inhibition in vivo at 1 µmol/kg was more than 90%.

Compound `Cc1nc2c3c(c(C(=O)N4CCC4)cc2n1C)CC[C@@H](c1ccccc1)O3` [D, (8S)-Azetidin-1-yl-(2,3-dimethyl-8-phenyl-3,6,7,8-tetrahydro-chromeno[7,8-d]imidazol-5-yl)-methanone] yielded an inhibition in vivo at 1 µmol/kg of more than 50%.

Turning to `CNC(=O)c1cc2c(nc(C)n2C)c2c1CC[C@@H](c1ccccc1)O2` [E, (8S)-2,3-Dimethyl-8-phenyl-3,6,7,8-tetrahydro-chromeno[7,8-d]imidazole-5-carboxylic Acid Methylamide], the inhibition in vivo at 1 µmol/kg was more than 80%.

Compound `Cc1nc2c3c(c(C(=O)N(C)C)cc2n1C)CC[C@@H](c1ccccc1F)O3` [F, (8S)-8-(2-Fluoro-phenyl)-2,3-dimethyl-3,6,7,8-tetrahydro-chromeno[7,8-d]imidazole-5-carboxylic Acid Dimethylamide] registered an inhibition in vivo at 1 µmol/kg of more than 70%.

For the compound `Cc1nc2c3c(c(C(=O)N(C)C)cc2n1C)CC[C@@H](c1ccc(F)cc1)O3` [G, (8S)-8-(4-Fluoro-phenyl)-2,3-dimethyl-3,6,7,8-tetrahydro-chromeno[7,8-d]imidazole-5-carboxylic Acid Dimethylamide Hydrochloride], the inhibition in vivo at 1 µmol/kg came to 100%.

For the compound `Cc1nc2c3c(c(C(=O)N(C)C)cc2n1C)CC[C@@H](c1ccccc1Cl)O3` [I, (8S)-8-(2-Chloro-phenyl)-2,3-dimethyl-3,6,7,8-tetrahydro-chromeno[7,8-d]imidazol-5-carboxylic Acid Dimethylamide], the inhibition in vivo at 1 µmol/kg is more than 70%.

`Cc1cc(F)ccc1[C@@H]1CCc2c(C(=O)N(C)C)cc3c(nc(C)n3C)c2O1` [N, (8S)-8-(4-Fluoro-2-methyl-phenyl)-2,3-dimethyl-3,6,7,8-tetrahydro-chromeno[7,8-d]imidazole-5-carboxylic Acid Dimethylamide] gave an inhibition in vivo at 1 µmol/kg of 100%.

Compound `Cc1ccccc1[C@@H]1CCc2c(C(=O)N3CCCC3)cc3c(nc(C)n3C)c2O1` [O, (8S)-(2,3-Dimethyl-8-o-tolyl-3,6,7,8-tetrahydro-chromeno[7,8-d]imidazol-5-yl)-pyrrolidin-1-yl-methanone] yielded an inhibition in vivo at 1 µmol/kg of more than 60%.

The compound `CNC(=O)c1cc2c(nc(C)n2C)c2c1CC[C@@H](c1ccccc1C)O2` [P, (8S)-2,3-Dimethyl-8-o-tolyl-3,6,7,8-tetrahydro-chromeno[7,8-d]imidazole-5-carboxylic Acid Methylamide] returned an inhibition in vivo at 1 µmol/kg of 100%.

`Cc1ccccc1[C@@H]1CCc2c(C(=O)N3CCC3)cc3c(nc(C)n3C)c2O1` [Q, (8S)-Azetidin-1-yl-(2,3-dimethyl-8-o-tolyl-3,6,7,8-tetrahydro-chromeno[7,8-d]imidazol-5-yl)-methanone]: the inhibition in vivo at 1 µmol/kg amounted to 100%.

Take `Cc1sccc1[C@@H]1CCc2c(C(=O)N(C)C)cc3c(nc(C)n3C)c2O1` [V, (8S)-2,3-Dimethyl-8-(2-methyl-thiophen-3-yl)-3,6,7,8-tetrahydro-chromeno[7,8-d]imidazole-5-carboxylic acid dimethylamide]: the inhibition in vivo at 1 µmol/kg turned out to be 100%.

Consider `Cc1ccccc1[C@@H]1CCc2c(C(=O)NC3CC3)cc3c(nc(C)n3C)c2O1` [W, (8S)-2,3-Dimethyl-8-o-tolyl-3,6,7,8-tetrahydro-chromeno[7,8-d]imidazole-5-carboxylic acid cyclopropylamide], for which the inhibition in vivo at 1 µmol/kg was determined as 100%.

Still in this data set, the particulars now being: dose 1 μmol/kg i.d. (intraduodenal), in vivo, anesthetized CD rat, female; continuous i.v. pentagastrin infusion.
Regarding `Cc1ccccc1[C@@H]1CCc2c(C(=O)N(C)C)cc3c(nc(C)n3C)c2O1` [H, (8S)-2,3-Dimethyl-8-o-tolyl-3,6,7,8-tetrahydro-chromeno[7,8-d]imidazole-5-carboxylic Acid Dimethylamido], the “Inhibition of acid secretion (%)” value is 100%.

As to `CCc1ccccc1[C@@H]1CCc2c(C(=O)N(C)C)cc3c(nc(C)n3C)c2O1` [L, (8S)-(2-Ethyl-phenyl)-2,3-dimethyl-3,6,7,8-tetrahydro-chromeno[7,8-d]imidazole-5-carboxylic Acid Dimethylamide], the “Inhibition of acid secretion (%)” value is listed as more than 70%.

Tested on in another data set: not given
Assay: not given
Details: not given
What is called melting point is the temperature, or range, at which the solid turns liquid. As for `Cc1nc2c(O)c(CC[C@@H](O)c3ccccc3)c(C(=O)N(C)C)cc2n1COCC[Si](C)(C)C`, the melting point lay in the range of 142 to 143 °C.

`Cc1nc2c3c(c(C(=O)N(C)C)cc2[nH]1)CC[C@@H](c1ccccc1)O3` [C, (8S)-2-Methyl-8-phenyl-3,6,7,8-tetrahydro-chromeno[7,8-d]imidazole-5-carboxylic Acid Dimethylamide] displayed a melting point of 215 to 216 °C.

Compound `Cc1nc2c(O)c(CC[C@@H](O)c3ccccc3)c(C(=O)N3CCC3)cc2n1C` [Example 3, (3R)-Azetidin-1-yl-[7-hydroxy-6-(3-hydroxy-3-phenyl-propyl)-2,3-dimethyl-3H-benzoimidazol-5-yl]-methanone] came in with a melting point of 265 to 266 °C.

With `CNC(=O)c1cc2c(nc(C)n2C)c(O)c1CC[C@@H](O)c1ccccc1` [Example 4, (3R)-7-Hydroxy-6-(3-hydroxy-3-phenyl-propyl)-2,3-dimethyl-3H-benzoimidazole-5-carboxylic Acid Methylamide], the melting point was in the range of 247 to 249 °C.

Turning to `Cc1nc2c(O)c(CC[C@@H](O)c3ccc(F)cc3)c(C(=O)N(C)C)cc2n1C` [Example 6, (3R)-6-[3-(4-Fluoro-phenyl)-3-hydroxy-propyl]-7-hydroxy-2,3-dimethyl-3H-benzoimidazole-5-carboxylic Acid Dimethylamide], the melting point fell in the range of 276 to 277 °C.

For `Cc1ccccc1[C@H](O)CCc1c(C(=O)N(C)C)cc2c(nc(C)n2C)c1O` [Example 7, (3R)-7-Hydroxy-6-(3-hydroxy-3-o-tolyl-propyl)-2,3-dimethyl-3H-benzoimidazole-5-carboxylic Acid Dimethylamide], the melting point was in the range of 139 to 140 °C.

`Cc1nc2c(O)c(CC[C@@H](O)c3ccc4ccccc4c3)c(C(=O)N(C)C)cc2n1C` [Example 10, (3R)-7-Hydroxy-6-(3-hydroxy-3-naphthalen-2-yl-propyl)-2,3-dimethyl-3H-benzoimidazole-5-carboxylic Acid Dimethylamide]: the melting point lay in the range of 145 to 147 °C.

As for `CCc1ccccc1[C@H](O)CCc1c(C(=O)N(C)C)cc2c(nc(C)n2C)c1O` [Example 11, (3R)-6-[3-(2-Ethyl-phenyl)-3-hydroxy-propyl]-7-hydroxy-2,3-dimethyl-3H-benzoimidazole-5-carboxylic Acid Dimethylamide], the melting point lay in the range of 135 to 137 °C.

The compound `Cc1nc2c(O)c(CC[C@@H](O)c3cccs3)c(C(=O)N(C)C)cc2n1C` [Example 12, (3R)-7-Hydroxy-6-(3-hydroxy-3-thiophen-2-yl-propyl)-2,3-dimethyl-3H-benzoimidazole-5-carboxylic Acid Dimethylamide] displayed a melting point of 264 to 265 °C.

For `Cc1ccccc1[C@@H](O)CCc1c(C(=O)N(C)C)cc2c(nc(C)n2C)c1O` [Example 25, (3S)-7-Hydroxy-6-(3-hydroxy-3-o-tolyl-propyl)-2,3-dimethyl-3H-benzoimidazole-5-carboxylic Acid Dimethylamide], the melting point is 203 to 205 °C.
